Data from patent US20070015729A1, “Conjugate of cyclodextrin and poly(oxyethylene), and process for preparation thereof” (priority 2005, published 2007).

Assay: TGA (thermogravimetric analysis) of thermal stability
Conditions: FIG. 3, ranking among the three compounds

thermal stability: highest
Compound: OC[C@H]1O[C@@H]2O[C@H]3[C@H](O)[C@@H](O)[C@@H](O[C@H]4[C@H](O)[C@@H](O)[C@@H](O[C@H]5[C@H](O)[C@@H](O)[C@@H](O[C@H]6[C@H](O)[C@@H](O)[C@@H](O[C@H]7[C@H](O)[C@@H](O)[C@@H](O[C@H]8[C@H](O)[C@@H](O)[C@@H](O[C@H]1[C@H](O)[C@H]2O)O[C@@H]8CO)O[C@@H]7CO)O[C@@H]6CO)O[C@@H]5CO)O[C@@H]4CO)O[C@@H]3CO [β-CD, β-cyclodextrin]
